What was measured:
PDE4 = details: background statement; cited from earlier work
cytokine release = details: background statement; cited from earlier work
eczema = details: patients with eczema; cited from earlier work
[1] = target: human recombinant PDE4B1 enzyme (Homo sapiens (Human), UniProt Q07343); test: Inhibition of PDE4B1 activity by cAMP HTRF assay; type: biochemical; details: human recombinant PDE4B1, cAMP 40 nM, pH 7.4
Summary of the method: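 Recombinant human PDE4B1 (4.8 U) was preincubated 10 min with compound in HBSS/HEPES/MgCl2/BSA, pH 7.4, then 40 nM cAMP was added for 60 min at RT. Remaining cAMP was read by HTRF after IBMX stop; IC50 from eight concentrations in duplicate, repeated twice.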

[2] = system: human peripheral blood mononuclear cells (PBMCs); test: Inhibition of LPS-induced TNFα release by peripheral blood mononuclear cells (PBMCs); type: cell-based; details: PBMC, TNFα level in supernatant, LPS 1 ug/mL, 24 hours, Luminex
Procedure: Inhibition of the compounds on proinflammatory cytokine release by peripheral blood mononuclear cells (PBMCs)
The effect of the compounds on the release characteristics of TNFa cytokines in frozen human peripheral blood mononuclear cells (PBMCs) was determined.
Fresh human PBMCs were isolated, and suspended in a fresh medium. The PBMC medium (CM) is RPMI1640 containing 10% FBS, 1% PBS, and 2 mM L-glutamine. The cells were plated at a density of 2*10^5 cells/well (100 ul). The test compound was dissolved in DMSO to form a 10 mM sample (DMSO, 100%). The compound was diluted with PBMC medium to the required concentrations. The sample (50 uL) was incubated for 1 hr with cells at 37° C., 5% CO2, after which the inducer (LPS, 1 ug/mL) was added. The inducer+vehicle (LPS+0.05% DMSO) was used as a control in this experiment. The vehicle without inducer was used as a negative control. Crisaborole was used as a positive control. After 24 hours of incubation, the supernatant was extracted and stored at −80° C. The supernatant was thawed and the TNFα level in the supernatant was measured by Luminex4-plex assay.

Chain of human recombinant PDE4B1 enzyme (Q07343 whole entry): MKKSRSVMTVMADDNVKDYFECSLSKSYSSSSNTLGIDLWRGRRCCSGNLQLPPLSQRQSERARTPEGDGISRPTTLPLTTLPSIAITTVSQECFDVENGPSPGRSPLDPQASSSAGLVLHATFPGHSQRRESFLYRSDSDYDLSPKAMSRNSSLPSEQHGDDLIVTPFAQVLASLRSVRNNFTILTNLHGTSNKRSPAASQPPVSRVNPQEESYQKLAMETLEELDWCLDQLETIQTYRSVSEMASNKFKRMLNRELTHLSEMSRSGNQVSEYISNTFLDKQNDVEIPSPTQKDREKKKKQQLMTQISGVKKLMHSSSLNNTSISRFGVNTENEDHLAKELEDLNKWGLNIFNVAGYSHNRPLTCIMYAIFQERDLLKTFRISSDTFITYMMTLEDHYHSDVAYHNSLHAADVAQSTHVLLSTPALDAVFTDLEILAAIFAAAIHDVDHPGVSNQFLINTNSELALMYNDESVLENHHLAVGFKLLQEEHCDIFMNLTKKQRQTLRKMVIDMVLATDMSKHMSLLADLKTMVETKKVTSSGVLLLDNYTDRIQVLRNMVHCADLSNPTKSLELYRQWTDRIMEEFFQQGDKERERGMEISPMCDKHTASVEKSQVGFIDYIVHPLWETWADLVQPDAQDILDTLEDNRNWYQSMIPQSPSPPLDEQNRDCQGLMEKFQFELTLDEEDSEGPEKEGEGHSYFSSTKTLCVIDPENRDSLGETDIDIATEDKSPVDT

Compound: N#Cc1ccc(Oc2ccc3c(c2)COB3O)cc1 [Crisaborole]
- enzyme inhibition activity (PDE4): about 100 nM
- cell activity inhibiting cytokine release (cytokine release): about 500 nM
- clinical effect on eczema higher than that of the blank control (eczema): about 10%
- proportion of patients who cannot benefit (eczema): about 50%

Compound: COc1ccc(/C=C/n2c(C)cc(=O)cc2C)cc1OC1CCSC1 (stereo not shown) [Example 80, (E)-1-((3-(tetrahydrothiophen-3-yl)oxy-4-methoxy)-styryl)-2,6-dimethylpyridin-4(1H)-one]
- IC50 [1]: 7 nM
- EC50 [2]: < 5 nM

Compound: Cc1cc(=O)cc(C)n1/C=C/c1ccc(OC(F)F)c(OCC2CC2)c1 [Example 88, (E)-1-(3-(cyclopropylmethoxy)-4-(difluoromethoxy)styryl)-2,6-dimethylpyridin-4(1H)-one]
- IC50 [1]: 2.8 nM
- EC50 [2]: < 5 nM

Compound: COc1ccc(/C=C/n2c(C)cc(=O)cc2C)cc1OCCSC [Example 77, (E)-1-(3-methylthioethoxy-4-methoxystyryl)-2,6-dimethylpyridin-4(1H)-one]
- IC50 [1]: 26.4 nM
- EC50 [2]: 11 nM

— patent US11440886B2, “Anti-inflammatory compound, and preparation and use thereof” (E-Nitiate Biopharmaceuticals (Hangzhou) Co., Ltd., priority 2018, dated 2022)
